Experimental data taken from US7998460B2, “Prevention of deficits in neurogenesis with anti-inflammatory agents” (The Board of Trustees of the Leland Stanford Junior …, priority 2003, dated 2011).

Legend:
[1] = tested on: adult hippocampus-derived neural precursor cells; experiment: In vitro neuronal differentiation (doublecortin) of hippocampal neural progenitor cells, 60 hours; assay type: cell-based, rat; conditions: for effect on in vitro neurogenesis (Dcx-expressing cells relative to control): 60 hours differentiation
Text: Neuroinflammation could inhibit neurogenesis by a variety of mechanisms, including stimulation of the HPA axis with subsequent elevation of gluccocorticoids, alterations in the relationships between progenitor cells and cells of the neuro-vasculature, or direct effects of activated microglia on the precursor cells. To determine the extent to which microglial activation might directly affect neural stem/progenitor cells, microglia were stimulated in vitro with LPS. LPS is a potent activator of microglia and up-regulates the elaboration of pro-inflammatory cytokines, including IL-6 and TNF-α. LPS-stimulated or resting microglia were then co-cultured with normal neural stem cells from the hippocampus under conditions that typically stimulate the differentiation of 30 to 40% of the progenitor cells into immature Dcx-expressing neurons (normalized to a value of 1 in FIG. 2A, control). Neurogenesis in the presence of microglia was assessed as the increase or decrease in Dcx-expressing cells relative to control. Co-culture with activated, but not resting, microglia decreased in vitro neurogenesis to approximately half of control levels (FIG. 2A). LPS added directly to precursor cells had no effect on neurogenesis.
To determine if this effect was due to soluble factors or due to cell-cell contact, hippocampal precursor cells were differentiated in the presence of media pre-conditioned by resting or activated microglia.
Activated microglia produce the potent pro-inflammatory cytokines interleukin-1β (IL-1β), tumor necrosis factor-α (TNF-α), interferon-γ (INF-γ) and interleukin-6 (IL-6). Progenitor cells were allowed to differentiate in the presence of each cytokine and the relative expression of Dcx was scored after 60 hours. […] Addition of neutralizing anti-IL-6 antibody to CM from activated microglia was able to fully restore in vitro neurogenesis (FIG. 2A). This implicated IL-6 as a key inhibitor of neurogenesis in microglial CM. […] In contrast to neurogenesis, gliogenesis was unaffected by IL-6 exposure as indicated by the lack of change in the number of cells expressing the astrocyte (glial fibrillary acidic protein, GFAP) or early oligodendrocyte (NG2) markers relative to control cultures (FIG. 2E). The hippocampal precursors used in this study do express the IL-6 receptor, as confirmed by RT-PCR (FIG. 5).
Progenitor Cell Culture Adult hippocampus-derived neural precursor cells were isolated from adult rat hippocampus and cultured as previously described. Briefly, adult female Fisher-344 rats were deeply anesthetized with sodium pentobarbital and were dissected immediately. Hippocampi were enzymatically dissociated with papain (2.5 U/ml; Worthington, Freehold, N.J.)-dispase II (1 U/ml; Boehringer Mannheim, Indianapolis, Ind.)-DNase I (250 U/ml, Worthington) solution. Digested tissue was then washed with DMEM-10% fetal calf serum (FCS) and subsequently mixed with PBS-equilibrated Percoll solution to a final concentration of 35% Percoll. The Percoll solution was made by mixing nine parts of Percoll (Amersham Pharmacia Biotech, Uppsala, Sweden) with one part of 10× PBS. The cell suspension was then fractionated by centrifugation for 10 min at 1000×gravity. Floating myelin and tissue debris were discarded and the cell pellet re-suspended in 65% Percoll solution and fractionated again by centrifugation for 10 min at 1000×g. The floating neural precursors were collected, washed free of Percoll, and plated onto poly-L-ornithine/laminin-coated dishes in DMEM/F12 (1:1) containing 10% FCS medium for 24 hrs; then medium was replaced with serum-free growth medium consisting of DMEM/F12 (1:1) supplemented with N2 supplement (Life Technologies, Gaithersburg, Md.) and 20 ng/ml of human recombinant FGF-2 (Peprotech, Rocky Hill, N.J.). Cell lines were labeled via infection with replication deficient GFP-expressing recombinant retrovirus LZRS-CAMut4GFP. […]

neural progenitor cells = experiment: Differentiation of mouse neural progenitor cells with recombinant MCP-1, 5 days; assay type: cell-based; conditions: rmMCP-1 up to 100 ug/ml
Protocol: To determine if MCP-1 was acting directly on neural progenitor cells to mediate these effects, brains from wild type, MCP-1^−/−, or CCR2^−/− mice were enzymatically dissociated and neurosphere cultures established in growth medium (Neurobasal-A, B27 supplement, 10 ng/ml EGF, 20 ng/ml FGF-2). Neurospheres were dissociated at passage 2-3 and plated as monolayers on laminin coated dishes and then induced to differentiate by replacing growth medium with differentiation medium (Neurobasal-A, B27, 1 ng/ml FGF-2, 100 nM all-trans retinoic acid, 10 ng/ml BDNF, 10 ng/ml NT3). Increasing concentrations of recombinant mouse MCP-1 (rmMCP-1) were added to the medium and cells were allowed to differentiate for 5 days. Cells were then fixed and stained for Dcx (FIG. 11C-C). Within 5 days of differentiation, a proportion of cells became positive for Dcx. […] Similarly, addition of rmMCP-1 up to a final concentration of 100 ug/ml had no effect on the number of neurons produced.
Progenitor Cell Culture and Differentiation Whole brains from PO mouse pups were enzymatically digested with a mixture of papain, neutral protease, and DNAse. Neurospheres were cultured on uncoated plates with medium containing Neurobasal A (Gibco), L-glutamine, PSF, B-27 without vitamin A, 40 ng/ml FGF-2, and 40 ng/ml EGF. Cultures were passaged in parallel when reaching confluence and total viable cell counts were made using a hemocytometer to score trypan blue-excluding cells at each passage. Cells were induced to differentiate by plating dissociated cells into laminin-coated multi-chamber tissue culture slides (Nunc) in differentiation media, Neurobasal A, B-27 without vitamin A, 1% fetal bovine serum, 100 nM all trans-retinoic acid, 1 ng/ml FGF-2, 10 ng/ml BDNF, and 10 ng/ml NT3. […] Total nuclei per sample site was scored using DAPI, neurons were scored on the basis of Dcx immunoreactivity. No significant differences were detected in either growth or differentiation between wild type and MCP-1^−/− or CCR2^−/− mice

C57BI/6 mice = experiment: Locomotor chambers and Morris water maze after LPS in mice; assay type: in vivo, mouse; conditions: for distance swum to hidden platform in training, NSAID alone: first training session, no LPS; for probe trial performance, NSAID alone: no LPS challenge
Protocol: Behavioral testing. Locomotor activity was measured in 17×17 inch chambers lined with three 16-beam infrared arrays in photocell boxes (MED Associates, Inc., St. Albans, Vt.). The mice were placed into the chambers and their locomotor activity was recorded for 20 minutes 4 days after LPS was injected (on Day 4). A 50 msec scanning rate was used for measuring beams broken. Distance traveled was analyzed for estimates of locomotion based on the movement of a given distance and resting delay (movement in a given period) using Open Field Activity software (MED Associates, Inc., St. Albans, Vt.).
Hippocampus-dependent learning and memory was assessed in the standard Morris water maze task. All hippocampus-dependent training and testing was conducted in a black circular tank (170 cm diameter×43 cm height) filled water made opaque using white non-toxic Tempra paint (Rich Art Color Co. Inc, Northvale, Calif.; training and testing). A platform (13 cm diameter×28.5 cm height) was hidden 1 cm below the water surface for platform shaping and training trials. Time and distance traveled in the pool was recorded using Videotrack Automated Behavioral Analysis System (Viewpoint Life Sciences Inc., Otterburn Park, Quebec).
Platform shaping began three days before platform training (Days 25-27). In the absence of extra-maze cues, mice were released from random points in the pool (filled with clearwater) near the platform and gently guided to the platform. Shaping trials continued until the mouse remained on the platform for 15 s over 3 consecutive trials on each of the three sessions.
[…] In the presence of extra-maze cues, the mice were released from the middle of the east, south, or west quadrant, facing the pool wall, and were given 120 s to find the platform hidden beneath opaque water in the center of the north quadrant. […] Sessions of 6 training trials (inter-trial interval of approximately 30 min) were conducted daily until all the mice located the platform in an average of 15 s or less within a session. […] Pathlength and latency were analyzed as measures of learning, swim speed was analyzed as a measure of sensorimotor ability and % time spent in outer annulus was analyzed as a measure of anxiety.
Probe Trial Testing was conducted at 1 week after mice reached criterion in the platform training phase of the experiment. The room setup was identical for platform training and probe trials, with the exception that the platform was removed from the pool during probe trials. The mice were given a single trial in which they were released from the center of the pool and then after 3 minutes were removed from the location that held the platform during training trials. Percent time and distance spent in each quadrant were analyzed as measures of memory, swim speed and total distance swum were analyzed as measures of sensorimotor ability and % time and distance spent in the outer annulus were analyzed as measures of anxiety. After the last probe trial, we ran four daily sessions of reversal trials (4 trials per session) in which mice were given 120 s to locate the platform hidden beneath opaque water in the south quadrant to better interpret whether probe trial performance was indicative of memory or perseveration. […] A visible platform session (2 trials) was administered after the final reversal trial to further test sensorimotor ability. Reversal and visible platform trial performance was scored identically to platform training performance.

Molecule: TNF-α
- decrease of in vitro neurogenesis (relative expression of Dcx) ([1]; recombinant IL-6 50 ng/ml or TNF-α 20 ng/ml, 60 hours): approximately 50%

Molecule: rmMCP-1: recombinant mouse monocyte chemoattractant protein-1 (Peprotech)
- extent of neuronal arborization (neural progenitor cells): Neither was the extent of arborization influenced
- number of Dcx-positive neurons produced (neural progenitor cells): no effect
- number of Dcx-positive neurons produced (neural progenitor cells; listed as MCP-1): does not directly affect

Molecule: Cc1ccc(-c2cc(C(F)(F)F)nn2-c2ccc(S(N)(=O)=O)cc2)cc1 [Celebrex, celecoxib]
- distance swum to hidden platform in training, NSAID alone (C57BI/6 mice): slight but significant increased distance swum
- distance swum to hidden platform in training, NSAID alone (C57BI/6 mice; listed as celebrex): slight but significant initial increase in swimming distance
- probe trial performance, NSAID alone (C57BI/6 mice): performed as badly as LPS-treated mice
- probe trial performance, NSAID alone (C57BI/6 mice; listed as celebrex): alone significantly impaired memory

B1: IL-1β: recombinant rat interleukin 1β (protein, UniProt Q63264 117-268, looked up)
Interleukin-1 beta: VPIRQLHCRLRDEQQKCLVLSDPCELKALHLNGQNISQQVVFSMSFVQGETSNDKIPVALGLKGLNLYLSCVMKDGTPTLQLESVDPKQYPKKKMEKRFVFNKIEVKTKVEFESAQFPNWYISTSQAEHRPVFLGNSNGRDIVDFTMEPVSS
- effect on in vitro neurogenesis (Dcx-expressing cells relative to control) [1]: not significant

B2: INF-γ: recombinant rat interferon γ (protein, UniProt P01581 23-156, looked up)
Interferon gamma: QGTLIESLESLKNYFNSSSMDAMEGKSLLLDIWRNWQKDGNTKILESQIISFYLRLFEVLKDNQAISNNISVIESHLITNFFSNSKAKKDAFMSIAKFEVNNPQIQHKAVNELIRVIHQLSPESSLRKRKRSRC
- effect on in vitro neurogenesis (Dcx-expressing cells relative to control) [1]: not significant
